# Results taken from ChEMBL document CHEMBL1146319, “Design, synthesis, and in vivo evaluation of oxamniquine methacrylate and acrylamide prodrugs” (2007).
# Legend:
# Type in all cases: functional
# Schistosoma mansoni [1] = experiment: Antiparasitic activity against Schistosoma mansoni BH cercareae infected Swiss mouse assessed as total number of worms after 10 days by mesenteric veins perfusion technique
# Schistosoma mansoni [2] = experiment: Antiparasitic activity against Schistosoma mansoni BH cercareae infected Swiss mouse assessed as average number of eggs at 3 stage after 10 days by oogram test
# Schistosoma mansoni [3] = experiment: Antiparasitic activity against Schistosoma mansoni BH cercareae infected Swiss mouse assessed as average number of eggs at 2 stage after 10 days by oogram test
# Schistosoma mansoni [4] = experiment: Antiparasitic activity against Schistosoma mansoni BH cercareae infected Swiss mouse as total numbers of worms after 20 days by mesenteric veins perfusion technique
# Schistosoma mansoni [5] = experiment: Antiparasitic activity against Schistosoma mansoni BH cercareae infected Swiss mouse assessed as average number of eggs at 2 stage after 20 days by oogram test
# Schistosoma mansoni [6] = experiment: Antiparasitic activity against Schistosoma mansoni BH cercareae infected Swiss mouse assessed as average number of eggs at 1 stage after 20 days by oogram test
# Schistosoma mansoni [7] = experiment: Antiparasitic activity against Schistosoma mansoni BH cercareae infected Swiss mouse assessed as average number of eggs at 1 stage after 10 days by oogram test
# Schistosoma mansoni [8] = experiment: Antiparasitic activity against Schistosoma mansoni BH cercareae infected Swiss mouse assessed as average number of eggs at 3 stage after 20 days by oogram test
Structure (SMILES),Activity (Schistosoma mansoni [1]),Activity (Schistosoma mansoni [2]),Activity (Schistosoma mansoni [3]),Activity (Schistosoma mansoni [4]),Activity (Schistosoma mansoni [5]),Activity (Schistosoma mansoni [6]),Activity (Schistosoma mansoni [7]),Activity (Schistosoma mansoni [8])
CC(C)NCC1CCc2cc(CO)c([N+](=O)[O-])cc2N1 (stereo unspecified) [OXAMNIQUINE],3,0,0,13,0,0,0,0
C=C(C)C(=O)OCc1cc2c(cc1[N+](=O)[O-])NC(CNC(C)C)CC2 (stereo unspecified) [OXAMNIQUINE ACRYLAMIDE],48,0.22,0.11,39,0.09,0,0,0.27
